Reference: patent US20260116910A1, “POLYCYCLIC COMPOUNDS AND METHODS THEREOF” (HEPAITECH (BEIJING) BIOPHARMA TECHNOLOGY CO., LTD., priority 2021, published 2026)
pEC50: −log10 of the molar value. Several values for one entry are separate records, joined by “and”; a condition that tells them apart may be missing. Identical values can stand only once. Like-named read-outs stand apart in the source and are kept apart here.

What was measured:
[1] = target: MRGPRX4 (Homo sapiens, UniProt Q96LA9); assay: MRGPRX4 activation, Fluo-8 Ca2+ FLIPR assay in HEK293T cells stably expressing MRGPRX4; type: cell-based; design: key to MRGPRX4 activation, Average / MRGPRX4 activation, Ave.: fluorescence change dF/F0; conditions: for EC50: MRGPRX4 activation, Ca2+ fluorescence, no activation in tested range reported as III, read-out: Activity (EC50 μM)
Summary of the method: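 Response measured as dF/F0: 30 s baseline, then 150 s after compound addition on FLIPR Tetra, in HHBS after 40-60 min room-temperature loading with 2 μM Fluo-8 AM.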

[2] = target: T1, human FXR (NR1H4) (Homo sapiens, UniProt Q96RI1); assay: Human FXR (NR1H4) agonist assessment, FXRE-NanoLuc reporter in HEK293T cells; type: cell-based; conditions: for pEC50: read-out: EC50
T1 sequence (Q96RI1 1-476 isoform Q96RI1-1): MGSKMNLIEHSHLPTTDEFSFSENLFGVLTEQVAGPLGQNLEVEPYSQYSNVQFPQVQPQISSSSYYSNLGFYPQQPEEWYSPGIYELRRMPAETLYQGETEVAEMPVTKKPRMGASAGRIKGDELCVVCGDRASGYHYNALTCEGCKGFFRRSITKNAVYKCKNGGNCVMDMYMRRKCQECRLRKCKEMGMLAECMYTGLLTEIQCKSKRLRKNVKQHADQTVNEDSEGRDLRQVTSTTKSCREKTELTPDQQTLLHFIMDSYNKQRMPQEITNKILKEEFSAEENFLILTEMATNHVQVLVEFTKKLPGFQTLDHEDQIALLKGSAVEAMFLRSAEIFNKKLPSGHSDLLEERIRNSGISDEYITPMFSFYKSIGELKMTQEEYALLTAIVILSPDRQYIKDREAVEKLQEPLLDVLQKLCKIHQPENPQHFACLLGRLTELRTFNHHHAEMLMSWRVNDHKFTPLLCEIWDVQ
Summary of the method: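 Read-out was NanoLuc luminescence in culture medium, measured 5 min after adding coelenterazine. Cells were HEK293T stably carrying human FXR and an FXRE reporter, exposed to compound for 24 hr at 37 °C. Vehicle was 0.01% DMSO. EC50 was obtained from sigmoid fits of gradient dilutions.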

[3] = FXR activation, HEK293T FXRE-NanoLuc reporter, 24 hr

Sequence of MRGPRX4 (Q96LA9 whole entry): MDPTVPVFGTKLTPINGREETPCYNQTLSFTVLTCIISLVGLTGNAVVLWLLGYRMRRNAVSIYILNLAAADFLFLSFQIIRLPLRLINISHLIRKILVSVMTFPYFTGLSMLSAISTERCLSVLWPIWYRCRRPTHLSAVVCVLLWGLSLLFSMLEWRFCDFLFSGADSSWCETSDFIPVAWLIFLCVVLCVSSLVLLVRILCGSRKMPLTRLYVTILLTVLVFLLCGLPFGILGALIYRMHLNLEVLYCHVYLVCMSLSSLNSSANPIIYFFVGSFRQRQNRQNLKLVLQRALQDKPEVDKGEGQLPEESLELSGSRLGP

SMILES	MRGPRX4 activation, Average ([1]; E3-9, Conc. (Log[M]) −4.0)	MRGPRX4 activation, Average ([1]; E3-9, Conc. (Log[M]) −4.5)	MRGPRX4 activation, Average ([1]; E3-9, Conc. (Log[M]) −5.0)	MRGPRX4 activation, Average ([1]; E3-9, Conc. (Log[M]) −5.4)	MRGPRX4 activation, Average ([1]; E3-9, Conc. (Log[M]) −5.9)	MRGPRX4 activation, Average ([1]; E3-9, Conc. (Log[M]) −6.4)	MRGPRX4 activation, Average ([1]; E3-9, Conc. (Log[M]) −6.9)	MRGPRX4 activation, Average ([1]; E3-9, Conc. (Log[M]) −7.3)	MRGPRX4 activation, Average ([1]; E3-9, Conc. (Log[M]) −7.8)	MRGPRX4 activation, Average ([1]; E3-9, Conc. (Log[M]) −8.3)	EC50 [1]	Efficacy (maximum measured induction of NanoLuc, normalized to CDCA set as 100%) [2]	pEC50 [2, 3]	Efficacy (maximum measured induction of NanoLuc, normalized to CDCA set as 100%) [2, 3]	MRGPRX4 activation, fluorescence change (dF/F0), Average ([1]; Conc. (Log[M]) −4.5)
CC[C@H]1[C@@H](O)[C@H]2[C@@H]3CC[C@](C)([C@H](C)CCNC(=O)NS(=O)(=O)C[C@]45CCC(CC4=O)C5(C)C)[C@H]3CC[C@@H]2[C@@]2(C)CC[C@H](F)C[C@@H]12 [9-5]	0.014	0.016	0.023	0.023	0.018	0.019	0.021	0.019	0.021	0.021	> 100 µM	C (key: A: efficacy >400%; B: 300%<efficacy <=400%; C: 100%<efficacy <=300%; D: efficacy <=100%)	> 6.00		
CC[C@H]1[C@@H](O)[C@@H]2[C@H](CC[C@]3(C)[C@@H]([C@H](C)CCNC(=O)NS(=O)(=O)c4ccc(Br)cc4OC(F)(F)F)CC[C@@H]23)[C@@]2(C)CC[C@H](F)C[C@@H]12 [9-6]	0.021	0.014	0.016	0.010	0.019	0.018	0.016	0.014	0.012	0.016	> 100 µM		> 6.00	C (100%<efficacy <=300%)	
CC[C@H]1[C@@H](O)[C@@H]2[C@H](CC[C@]3(C)[C@@H]([C@H](C)CCC(=O)NS(C)(=O)=O)CC[C@@H]23)[C@@]2(C)CC[C@H](F)C[C@@H]12 [9-7]											> 100 µM		5.00 to 6.00	A (efficacy >400%)	0.022 and 0.037
CC[C@H]1[C@@H](O)[C@@H]2[C@H](CC[C@]3(C)[C@@H]([C@H](C)CCNC(=O)NS(=O)(=O)c4ccc(C(C)(C)CF)cc4)CC[C@@H]23)[C@@]2(C)CCC(F)(F)C[C@@H]12 [10-1]	0.025	0.016	0.021	0.018	0.019	0.016	0.018	0.016	0.008	0.010	> 100 µM		> 6.00	B (300%<efficacy <=400%)	
CC[C@H]1[C@@H](O)[C@@H]2[C@H](CC[C@]3(C)[C@@H]([C@H](C)CCNC(=O)NS(=O)(=O)c4cc(F)ccc4F)CC[C@@H]23)[C@@]2(C)CCC(F)(F)C[C@@H]12 [10-2]	0.006	0.004	0.010	0.018	0.018	0.019	0.021	0.019	0.018	0.018	> 100 µM		> 6.00	C (100%<efficacy <=300%)	
CC[C@H]1[C@@H](O)[C@@H]2[C@H](CC[C@]3(C)[C@@H]([C@H](C)CCNC(=O)NS(=O)(=O)c4cc(F)cc(F)c4)CC[C@@H]23)[C@@]2(C)CCC(F)(F)C[C@@H]12 [10-3]	0.010	0.004	0.014	0.016	0.023	0.018	0.023	0.021	0.012	0.018	> 100 µM		> 6.00	C (100%<efficacy <=300%)	
